Measured values: ChEMBL document CHEMBL1909046, “DrugMatrix in vitro pharmacology data”

How the values were obtained:
B2 bradykinin receptor = molecular target: T1, B2 bradykinin receptor (Homo sapiens, UniProt P30411); format: cell membranes, Membrane; conditions: chem-1; further: in other assays of this panel Not Active means under 50% inhibition at 10 µM
T1 sequence (P30411 whole entry): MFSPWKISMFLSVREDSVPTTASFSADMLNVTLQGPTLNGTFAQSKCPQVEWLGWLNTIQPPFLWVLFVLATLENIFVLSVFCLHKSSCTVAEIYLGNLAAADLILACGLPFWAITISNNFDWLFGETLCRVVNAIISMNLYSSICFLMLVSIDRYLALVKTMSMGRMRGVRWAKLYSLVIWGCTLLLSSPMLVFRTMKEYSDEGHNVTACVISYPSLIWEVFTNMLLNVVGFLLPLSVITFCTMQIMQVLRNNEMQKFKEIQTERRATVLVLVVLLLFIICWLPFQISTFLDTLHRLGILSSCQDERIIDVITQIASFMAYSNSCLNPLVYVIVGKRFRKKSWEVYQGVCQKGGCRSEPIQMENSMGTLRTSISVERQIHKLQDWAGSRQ

Melanocortin receptor 3 = Melanocortin receptor 3 (Homo sapiens, UniProt P41968); format: cell membranes, Membrane; conditions: hek293; further: in other assays of this panel Not Active means under 50% inhibition at 10 µM
[1] = molecular target: T2, Muscarinic acetylcholine receptor M4 (Homo sapiens, UniProt P08173); format: cell membranes, CHO-K1, Membrane; further: in other assays of this panel Not Active means under 50% inhibition at 10 µM
T2 sequence (P08173 whole entry): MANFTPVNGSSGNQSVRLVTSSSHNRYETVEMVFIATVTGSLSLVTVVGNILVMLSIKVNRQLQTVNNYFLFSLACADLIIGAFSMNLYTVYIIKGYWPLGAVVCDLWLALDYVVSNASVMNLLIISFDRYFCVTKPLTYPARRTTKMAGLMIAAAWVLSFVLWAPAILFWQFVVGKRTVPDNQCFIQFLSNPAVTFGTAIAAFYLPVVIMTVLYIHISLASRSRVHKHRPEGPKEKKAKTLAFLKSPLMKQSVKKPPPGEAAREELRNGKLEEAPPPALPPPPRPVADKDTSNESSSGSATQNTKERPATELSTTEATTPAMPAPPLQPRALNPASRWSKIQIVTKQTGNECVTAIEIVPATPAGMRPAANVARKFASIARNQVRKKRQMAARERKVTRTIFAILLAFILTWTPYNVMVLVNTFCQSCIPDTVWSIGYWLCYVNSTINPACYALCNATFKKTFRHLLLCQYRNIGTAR

[2] = molecular target: T3, Nitric oxide synthase, inducible (Mus musculus, UniProt P29477); parameters: species or system Escherichia coli;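 further: inhibition of iNOS enzyme activity measured with L-arginine as substrate; in other assays of this panel Not Active means under 50% inhibition at 10 µM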
T3 sequence (P29477 whole entry): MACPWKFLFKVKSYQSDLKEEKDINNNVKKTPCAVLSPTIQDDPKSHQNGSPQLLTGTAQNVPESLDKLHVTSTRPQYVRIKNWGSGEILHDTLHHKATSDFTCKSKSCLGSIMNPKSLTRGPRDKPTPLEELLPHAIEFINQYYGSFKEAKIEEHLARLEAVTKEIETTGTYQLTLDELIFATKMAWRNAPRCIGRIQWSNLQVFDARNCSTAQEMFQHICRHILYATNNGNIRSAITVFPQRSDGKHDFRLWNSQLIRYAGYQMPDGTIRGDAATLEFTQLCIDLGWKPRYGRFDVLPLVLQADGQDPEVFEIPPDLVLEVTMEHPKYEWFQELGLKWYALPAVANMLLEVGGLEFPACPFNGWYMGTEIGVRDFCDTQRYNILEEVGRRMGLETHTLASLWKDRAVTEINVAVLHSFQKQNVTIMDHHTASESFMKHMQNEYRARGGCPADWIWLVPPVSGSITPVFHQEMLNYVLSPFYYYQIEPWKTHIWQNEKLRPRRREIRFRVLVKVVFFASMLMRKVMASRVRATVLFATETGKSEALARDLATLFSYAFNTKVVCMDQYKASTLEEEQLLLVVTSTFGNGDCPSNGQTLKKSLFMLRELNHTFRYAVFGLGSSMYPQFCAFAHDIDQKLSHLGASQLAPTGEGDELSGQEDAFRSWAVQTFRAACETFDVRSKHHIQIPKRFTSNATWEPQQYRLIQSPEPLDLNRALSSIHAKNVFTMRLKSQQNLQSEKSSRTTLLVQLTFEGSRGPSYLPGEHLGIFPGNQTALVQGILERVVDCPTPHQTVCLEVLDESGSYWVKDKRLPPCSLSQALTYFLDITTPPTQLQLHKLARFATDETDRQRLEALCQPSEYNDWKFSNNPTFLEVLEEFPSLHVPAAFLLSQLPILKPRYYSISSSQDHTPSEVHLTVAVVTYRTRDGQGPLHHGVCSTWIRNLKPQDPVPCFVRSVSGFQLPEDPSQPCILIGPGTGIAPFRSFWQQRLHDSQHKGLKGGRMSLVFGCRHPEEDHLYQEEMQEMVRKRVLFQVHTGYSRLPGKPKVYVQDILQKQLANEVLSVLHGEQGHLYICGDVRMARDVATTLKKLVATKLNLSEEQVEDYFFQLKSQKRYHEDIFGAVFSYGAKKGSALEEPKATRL

[3] = molecular target: Mitogen-activated protein kinase 3 (Homo sapiens, UniProt P27361); experiment: DRUGMATRIX: Protein Serine/Threonine Kinase, ERK1 enzyme inhibition (substrate: Myelin Basic Protein); parameters: species or system Escherichia coli; conditions: Not Active = under 50% inhibition at 10 µM
Adenosine receptor A1 = molecular target: T4, Adenosine receptor A1 (Homo sapiens, UniProt P30542); format: cell membranes, CHO, Membrane; conditions: cho
T4 sequence (P30542 whole entry): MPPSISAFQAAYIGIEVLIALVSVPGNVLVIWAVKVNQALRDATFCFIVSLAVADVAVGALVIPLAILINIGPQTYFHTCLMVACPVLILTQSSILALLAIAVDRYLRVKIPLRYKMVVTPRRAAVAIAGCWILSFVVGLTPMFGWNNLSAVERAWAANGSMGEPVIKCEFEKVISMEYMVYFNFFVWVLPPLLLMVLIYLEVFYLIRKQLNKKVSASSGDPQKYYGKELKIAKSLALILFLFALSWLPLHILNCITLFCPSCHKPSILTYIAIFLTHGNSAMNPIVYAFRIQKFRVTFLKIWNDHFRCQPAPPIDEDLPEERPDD

Cytochrome P450 3A4 = Cytochrome P450 3A4 (Homo sapiens, UniProt P08684); conditions: bti-tn-5b1-4; further: in other assays of this panel Not Active means under 50% inhibition at 10 µM
Cytochrome P450 3A4, sequence (P08684 whole entry): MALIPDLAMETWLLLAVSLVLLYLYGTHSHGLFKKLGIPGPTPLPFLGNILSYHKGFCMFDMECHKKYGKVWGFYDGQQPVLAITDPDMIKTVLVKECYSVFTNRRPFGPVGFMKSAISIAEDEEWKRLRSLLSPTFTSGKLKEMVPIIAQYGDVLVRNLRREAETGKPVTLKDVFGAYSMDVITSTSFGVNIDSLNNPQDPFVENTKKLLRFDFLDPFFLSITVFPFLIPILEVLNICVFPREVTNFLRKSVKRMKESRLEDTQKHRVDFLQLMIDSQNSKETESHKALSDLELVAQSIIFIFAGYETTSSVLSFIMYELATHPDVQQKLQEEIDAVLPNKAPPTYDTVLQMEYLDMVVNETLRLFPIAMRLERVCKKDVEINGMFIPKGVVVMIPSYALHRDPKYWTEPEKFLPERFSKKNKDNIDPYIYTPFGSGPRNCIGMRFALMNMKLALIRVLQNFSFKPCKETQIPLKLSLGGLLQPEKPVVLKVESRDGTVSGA

Melanocortin receptor 3, sequence (P41968 whole entry): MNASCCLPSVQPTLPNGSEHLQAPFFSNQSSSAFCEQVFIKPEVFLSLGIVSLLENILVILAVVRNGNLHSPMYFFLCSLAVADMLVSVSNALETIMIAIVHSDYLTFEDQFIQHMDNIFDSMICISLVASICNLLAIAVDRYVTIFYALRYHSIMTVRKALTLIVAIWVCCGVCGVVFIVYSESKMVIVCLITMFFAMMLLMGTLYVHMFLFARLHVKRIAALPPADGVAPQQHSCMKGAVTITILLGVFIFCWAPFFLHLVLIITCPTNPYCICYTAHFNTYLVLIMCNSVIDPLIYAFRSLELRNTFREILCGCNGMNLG
Mitogen-activated protein kinase 3, sequence (P27361 whole entry): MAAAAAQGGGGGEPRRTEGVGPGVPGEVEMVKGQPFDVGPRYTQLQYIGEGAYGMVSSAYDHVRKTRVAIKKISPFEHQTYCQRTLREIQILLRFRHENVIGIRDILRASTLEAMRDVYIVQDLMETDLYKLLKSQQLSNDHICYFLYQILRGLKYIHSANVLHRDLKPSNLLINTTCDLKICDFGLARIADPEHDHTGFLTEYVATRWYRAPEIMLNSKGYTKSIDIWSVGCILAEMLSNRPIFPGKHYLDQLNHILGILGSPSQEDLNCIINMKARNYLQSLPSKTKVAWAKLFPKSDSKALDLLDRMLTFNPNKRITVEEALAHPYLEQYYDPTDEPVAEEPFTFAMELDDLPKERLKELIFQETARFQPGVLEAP

Structure (SMILES)	IC50 (B2 bradykinin receptor)	IC50 (Melanocortin receptor 3)	IC50 ([1]; cho-k1)	IC50 [2]	IC50 [3]	IC50 (Adenosine receptor A1)	IC50 (Cytochrome P450 3A4)	Ki (Cytochrome P450 3A4)	IC50 ([1]; read-out: IC50)	Ki ([1]; read-out: Ki)
CN(C)C(=O)C(CCN1CCC(O)(c2ccc(Cl)cc2)CC1)(c1ccccc1)c1ccccc1 [LOPERAMIDE]	Not Active	Not Active	Not Active	Not Active	Not Active	Not Active	Not Active	Not Active		
O=C(O)c1ccccc1O [SALICYLIC ACID]	Not Active	Not Active	Not Active	Not Active	Not Active	Not Active	Not Active	Not Active		
Nc1ccc(S(=O)(=O)NC(=O)c2ccccc2)cc1 [SULFABENZAMIDE]	Not Active	Not Active	Not Active	Not Active	Not Active	Not Active	Not Active	Not Active		
C[C@@](Cc1ccc(O)c(O)c1)(NN)C(=O)O.O [CARBIDOPA]	Not Active	Not Active	Not Active	Not Active	Not Active	Not Active	Not Active	Not Active		
CCCCCCCCNC(C)C(O)c1ccc(SC(C)C)cc1 (stereo not drawn) [SULOCTIDIL]	Not Active	Not Active		Not Active	Not Active	Not Active	Not Active	Not Active	4560 nM	636 nM
CN1CCN(CCCN2c3ccccc3Sc3ccc(C(F)(F)F)cc32)CC1 [TRIFLUOPERAZINE]	Not Active	Not Active	Not Active	Not Active	Not Active	Not Active				
C[C@]12C=CC(=O)C=C1CC[C@@H]1[C@@H]2C(=O)C[C@@]2(C)[C@H]1CC[C@]2(O)C(=O)CO [PREDNISONE]	Not Active	Not Active	Not Active	Not Active	Not Active	Not Active				
OCCOCCN1CCN(C2=Nc3ccccc3Sc3ccccc32)CC1 [QUETIAPINE]	Not Active	Not Active		Not Active	Not Active	Not Active	Not Active	Not Active		
CC(C)NC[C@H](O)COc1cccc2ccccc12 [LEVOPROPRANOLOL]	Not Active	Not Active	Not Active	Not Active	Not Active	Not Active	Not Active	Not Active		
O=C(O)CCCCC1CCSS1 (stereo not drawn) [LIPOIC ACID, ALPHA]	Not Active	Not Active	Not Active	Not Active	Not Active	Not Active	Not Active	Not Active		
CN1[C@@H]2CC[C@H]1C[C@@H](OC(c1ccccc1)c1ccccc1)C2 [BENZTROPINE]	Not Active	Not Active		Not Active	Not Active	Not Active	Not Active	Not Active		
